Laboratory results from US8318172B2, “Breaking immunological tolerance with a genetically encoded unnatural amino acid” (The Scripps Research Institute, priority 2008, dated 2012).

Legend:
[1] = TR-FRET retinol binding assay of mRBP4 proteins; settings: retinol binding affinities of mRBP4 proteins
Procedure: The binding affinities of mRBP4 proteins were determined by a TR-FRET retinol binding assay.
WT and pNO2Phe mRBP4 mutant proteins were labeled with biotin using the Sulfo-NHS-Biotin kit (Pierce, Rockford, Ill.) according to manufacturer instructions. For determination of retinol binding activity, 10 nM biotin-labeled RBP4 was mixed with 1 nM Streptavidin-Europium chelate (LANCE® Eu-W8044 Streptavidin, Perkin Elmer, Foster City, Calif.). Increasing concentrations of Cy5-labeled retinol were added to the reaction and retinol binding was assessed by homogeneous time-resolved fluorescence resonance energy transfer (TR-FRET).

WT mRBP4 = target: T1, WT mRBP4 (Mus musculus, UniProt Q00724); assay: Immunization of mice with mRBP4 variants (RIMMS), serum IgG titers by ELISA; format: in vivo; settings: Bcl2 mice (FIG. 19), C57BL/6 mice (FIG. 26), RIMMS protocol
T1 construct: The cDNA encoding murine RBP4 (aa 19-201); made in house; host or cells: E. coli BL21(DE3)
Procedure: 30 μl of 0.5 μg/ml protein was used to coat the wells of Maxisorp 384-well plates (Nunc, Rochester, N.Y.) overnight at 4° C. After washing with PBS+0.05% Tween 20 (PBST), the coated plates were blocked with 80 μl of 1% BSA in PBS, and washed again with PBST. The plates were sequentially incubated with 20 μl of primary antibody or serum diluted in 1% BSA in PBS, 20 μl of HRP-conjugated goat anti-mouse IgG or anti-mouse IgM (Jackson ImmunoResearch Laboratories, West Grove, Pa.), and 20 μl of TMB substrate (KPL, Gaithersburg, Md.), and read at an absorbance of 650 nm. Between incubations, the plates were washed at least six times with PBST.
Before measurement, serum samples were diluted 1:1,000 with 1% BSA in PBS buffer.

Kd [1]: 0.171 µM
serum IgG titers against WT mRBP4 (WT mRBP4): insignificant serum IgG titers
Substance: WT mRBP4: wild-type murine retinol binding protein 4, N-terminal His6-tagged, expressed in E. coli
